Test results as given in patent US9365511B2, “Biphenyl-ethyl-pyrrolidine derivatives as histamine H3 receptor modulators for the treatment of cognitive disorders” (Arena Pharmaceuticals, Inc., priority 2013, dated 2016).
Entries after “also recorded” stand apart in the source; their conditions may differ.

Molecular target: human H3 receptor (Homo sapiens (Human), UniProt Q9Y5N1)
Experiment: Human H3 receptor HTRF cAMP assay
Type: cell-based
Conditions: HEK293 cells expressing the human H3 receptor, forskolin 2 μM; read-out: IC50 H3R
From the text: Homogeneous time-resolved fluorescence assays (HTRF®, Cisbio) detect levels of cAMP in lysed cell preparations using a europium or terbium cryptate-labeled anti-cAMP antibody and fluorophore-labeled cAMP (cAMP-d2). In the absence of exogenous cAMP, the anti-cAMP antibody binds to cAMP-d2. Photoexcitation of the cryptate donor results in a combination of cryptate emission at 620 nm and fluorescence resonance energy transfer (FRET) from the cryptate to the acceptor d2 fluorophore, which then fluoresces at 665 nm. The 620/665 nm emission ratio is monitored. In the presence of exogenous cAMP, which competes with cAMP-d2 for binding to the anti-cAMP antibody, FRET is decreased and the […], providing a sensitive and accurate means to measure cAMP levels in biological assays.
Compounds of the present invention were evaluated using the human H3 receptor (H3R) HTRF cAMP assay. In this assay, HEK293 cells expressing the human H3 receptor were suspended in PBS containing 100 μM IBMX and plated into 384-well assay plates (Perkin Elmer Proxiplate 384-Plus; 15,000 cells per well; 5 μL plating volume) and allowed to equilibrate for an hour. Test compounds were serially diluted in 100% DMSO and then further diluted in PBS containing forskolin (2 μM). Test compounds (5 μL) were then added to the assay plate and the mixture was incubated for 1 hour. HTRF assay reagents (Cisbio, Dynamic 2 cAMP Kit), cAMP-d2 and cryptate-labeled anti-cAMP antibody, are mixed with cell lysis buffer and added to the assay plate. After 1-hour incubation with these reagents, the assay plate was read on an HTRF-compatible microplate reader (Perkin Elmer EnVision or BMG Pherastar). A cAMP standard curve was included on each assay plate and HTRF emission ratios for test compounds were fit to this curve to generate accurate measures of cAMP levels in each test well.

Sequence of human H3 receptor (Q9Y5N1 whole entry): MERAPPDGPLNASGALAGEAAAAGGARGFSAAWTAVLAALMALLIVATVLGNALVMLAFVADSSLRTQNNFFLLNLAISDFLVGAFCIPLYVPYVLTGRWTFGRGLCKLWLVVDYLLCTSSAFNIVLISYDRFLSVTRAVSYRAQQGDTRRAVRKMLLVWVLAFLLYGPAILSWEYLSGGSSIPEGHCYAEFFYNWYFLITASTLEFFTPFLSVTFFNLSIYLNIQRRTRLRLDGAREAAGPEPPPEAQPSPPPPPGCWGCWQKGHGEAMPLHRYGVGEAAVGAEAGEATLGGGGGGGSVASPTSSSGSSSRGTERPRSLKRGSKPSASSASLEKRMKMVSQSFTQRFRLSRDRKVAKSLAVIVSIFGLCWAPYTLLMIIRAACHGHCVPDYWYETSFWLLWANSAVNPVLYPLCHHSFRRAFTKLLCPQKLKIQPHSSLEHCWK

Row | SMILES | IC50 [nM]
1 | CCOC(=O)C1CCCCC1NC(=O)C1(c2ccc(-c3ccc(CCN4CCC[C@H]4C)cc3)cc2)CCCC1 (stereo in doubt) [Compound 20, (1R,2S)-Ethyl 2-(1-(4′-(2-((R)-2-Methylpyrrolidin-1-yl)ethyl)biphenyl-4-yl)cyclopentanecarboxamido)cyclohexanecarboxylate] | 3
2 | C[C@@H]1CCCN1CCc1ccc(-c2ccc(C(=O)O)cc2)cc1 [Compound 1, (R)-4′-(2-(2-Methylpyrrolidin-1-yl)ethyl)biphenyl-4-carboxylic Acid] | 3.8
3 | C[C@@H]1CCCN1CCc1ccc(-c2ccc(CC(=O)O)cc2)cc1 [Compound 2, (R)-2-(4′-(2-(2-Methylpyrrolidin-1-yl)ethyl)biphenyl-4-yl)acetic Acid] | 8.1
4 | CCOC(=O)COCc1ccc(-c2ccc(CCN3CCC[C@H]3C)cc2)cc1 [Compound 4, (R)-Ethyl 2-((4′-(2-(2-Methylpyrrolidin-1-yl)ethyl)biphenyl-4-yl)methoxy)acetate] | 0.67
5 | C[C@@H]1CCCN1CCc1ccc(-c2ccc(COCC(=O)O)cc2)cc1 [Compound 5, (R)-2-((4′-(2-(2-Methylpyrrolidin-1-yl)ethyl)biphenyl-4-yl)methoxy)acetic Acid] | 5.5
6 | C[C@@H]1CCCN1CCc1ccc(-c2ccc(CCn3cnnn3)cc2)cc1 [Compound 7, (R)-1-(2-(4′-(2-(2-Methylpyrrolidin-1-yl)ethyl)biphenyl-4-yl)ethyl)-1H-tetrazole] | 0.93
7 | C[C@@H]1CCCN1CCc1ccc(-c2ccc(CCn3ncnn3)cc2)cc1 [Compound 8, (R)-2-(2-(4′-(2-(2-Methylpyrrolidin-1-yl)ethyl)biphenyl-4-yl)ethyl)-2H-tetrazole] | 1.2
8 | COC(=O)CCc1ccc(-c2ccc(CCN3CCC[C@H]3C)cc2)cc1 [Compound 9, (R)-Methyl 3-(4′-(2-(2-Methylpyrrolidin-1-yl)ethyl)biphenyl-4-yl)propanoate] | 1.1
9 | C[C@@H]1CCCN1CCc1ccc(-c2ccc(C(C)(C)C(=O)O)cc2)cc1 [Compound 10, (R)-2-Methyl-2-(4′-(2-(2-methylpyrrolidin-1-yl)ethyl)biphenyl-4-yl)propanoic Acid] | 3.1
10 | CCOC(=O)CCc1ccc(-c2ccc(CCN3CCC[C@H]3C)cc2)cc1 [Compound 11, (R)-Ethyl 3-(4′-(2-(2-Methylpyrrolidin-1-yl)ethyl)biphenyl-4-yl)propanoate] | 1.8
11 | C[C@@H]1CCCN1CCc1ccc(-c2ccc(CCC(=O)NC(C)(C)C(=O)OC(C)(C)C)cc2)cc1 [Compound 12, (R)-tert-Butyl 2-Methyl-2-(3-(4′-(2-(2-methylpyrrolidin-1-yl)ethyl)biphenyl-4-yl)propanamido)propanoate] | 0.95
12 | C[C@H](NC(=O)CCc1ccc(-c2ccc(CCN3CCC[C@H]3C)cc2)cc1)C(=O)OC(C)(C)C [Compound 13, (S)-tert-Butyl 2-(3-(4′-(2-((R)-2-Methylpyrrolidin-1-yl)ethyl)biphenyl-4-yl)propanamido)propanoate] | 2.1
13 | COC(=O)CCCNC(=O)C1(c2ccc(-c3ccc(CCN4CCC[C@H]4C)cc3)cc2)CCCC1 [Compound 16, (R)-Methyl 4-(1-(4′-(2-(2-Methylpyrrolidin-1-yl)ethyl)biphenyl-4-yl)cyclopentanecarboxamido)butanoate] | 1.5
14 | C[C@H](NC(=O)CCc1ccc(-c2ccc(CCN3CCC[C@H]3C)cc2)cc1)C(=O)O [Compound 18, (S)-2-(3-(4′-(2-((R)-2-methylpyrrolidin-1-yl)ethyl)biphenyl-4-yl)propanamido)propanoic acid] | 0.79
15 | COC(=O)CNC(=O)CCc1ccc(-c2ccc(CCN3CCC[C@H]3C)cc2)cc1 [Compound 24, (R)-Methyl 2-(3-(4′-(2-(2-Methylpyrrolidin-1-yl)ethyl)biphenyl-4-yl)propanamido)acetate] | 0.99
16 | COC(=O)C1(c2ccc(-c3ccc(CCN4CCC[C@H]4C)cc3)cc2)CCCC1 [Compound 25, (R)-Methyl 1-(4′-(2-(2-Methylpyrrolidin-1-yl)ethyl)biphenyl-4-yl)cyclopentanecarboxylate] | 3.3
17 | C[C@@H]1CCCN1CCc1ccc(-c2ccc(CCC(=O)NCC(=O)OC(C)(C)C)cc2)cc1 [Compound 26, (R)-tert-Butyl 2-(3-(4′-(2-(2-Methylpyrrolidin-1-yl)ethyl)biphenyl-4-yl)propanamido)acetate] | 3.8
18 | COC(=O)CNC(=O)C1(c2ccc(-c3ccc(CCN4CCC[C@H]4C)cc3)cc2)CCCC1 [Compound 27, (R)-Methyl 2-(1-(4′-(2-(2-Methylpyrrolidin-1-yl)ethyl)biphenyl-4-yl)cyclopentanecarboxamido)acetate] | 1.9
19 | C[C@@H]1CCCN1CCc1ccc(-c2ccc(C3(C(=O)NCCCC(=O)O)CCCC3)cc2)cc1 [Compound 33, (R)-4-(1-(4′-(2-(2-Methylpyrrolidin-1-yl)ethyl)biphenyl-4-yl)cyclopentanecarboxamido)butanoic Acid] | 2.1
20 | CCOC(=O)C1CCN(C(=O)CCc2ccc(-c3ccc(CCN4CCC[C@H]4C)cc3)cc2)CC1 [Compound 35, (R)-Ethyl 1-(3-(4′-(2-(2-Methylpyrrolidin-1-yl)ethyl)biphenyl-4-yl)propanoyl)piperidine-4-carboxylate] | 0.96
21 | C[C@@H]1CCCN1CCc1ccc(-c2ccc(Cc3nnn[nH]3)cc2)cc1 [Compound 37, (R)-5-((4′-(2-(2-Methylpyrrolidin-1-yl)ethyl)biphenyl-4-yl)methyl)-1H-tetrazole] | 0.78
22 | COC(=O)C(C)(C)NC(=O)c1ccc(-c2ccc(CCN3CCC[C@H]3C)cc2)cc1 [Compound 38, (R)-Methyl 2-Methyl-2-(4′-(2-(2-methylpyrrolidin-1-yl)ethyl)biphenyl-4-ylcarboxamido)propanoate] | 1.2
23 | C[C@@H]1CCCN1CCc1ccc(-c2ccc(C(=O)NCCC(=O)O)cc2)cc1 [Compound 43, (R)-3-(4′-(2-(2-Methylpyrrolidin-1-yl)ethyl)biphenyl-4-ylcarboxamido)propanoic Acid] | 2.5
24 | C[C@@H]1CCCN1CCc1ccc(-c2ccc(CCc3nnn[nH]3)cc2)cc1 [Compound 44, (R)-5-(2-(4′-(2-(2-Methylpyrrolidin-1-yl)ethyl)biphenyl-4-yl)ethyl)-1H-tetrazole] | 6.9
25 | C[C@@H]1CCCN1CCc1ccc(-c2ccc(CCCC(=O)O)cc2)cc1 [Compound 45, (R)-4-(4′-(2-(2-Methylpyrrolidin-1-yl)ethyl)biphenyl-4-yl)butanoic Acid] | 0.97

Test system: histamine-induced scratching behavior in mice
Experiment: Histamine-induced model for pruritus (Example 6)
Type: in vivo, C57BL/6j male mice
Conditions: oral administration, histamine s.c. 30 min post-dosing, bouts counted 5-15 min, FIG. 6
Method: H3R inhibitors, Compound 3 and Compound 11, were dissolved in 0.5% methylcellulose at the appropriate concentration and 100 μL were administered orally to 8-week-old C57BL/6j male mice. Thirty minutes post-dosing, 25 μL of 40 mg/mL histamine solution was injected subcutaneously at the rostral part of the back. Mice were video recorded and the number of scratching bouts that occurred between 5 and 15 minutes was counted after histamine injection.

Row | SMILES | histamine-induced scratching behavior (number of scratching bouts)
26 | CCOC(=O)CCc1ccc(-c2ccc(CCN3CCC[C@H]3C)cc2)cc1 [Compound 11, (R)-Ethyl 3-(4′-(2-(2-Methylpyrrolidin-1-yl)ethyl)biphenyl-4-yl)propanoate] | effectively inhibit histamine-induced pruritus; also recorded: inhibit histamine-induced scratching behavior
